Test results as given in patent US20090018111A1, “Novel Antimicrobial Medicament” (priority 2004, published 2009).
Read-outs that look alike come from different tables or passages of the source.

What was measured:
Assay in all cases: Sensitivity test (agar dilution)
S. marcescens GN6473 = assay type: cell-based, Serratia marcescens; conditions: Serratia marcescens
Method in brief: (§1)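 Strains were grown overnight at 37° C, brought to about 10^6 CFU/ml in gelatin-buffered saline, and ~5 μl inoculated onto MHA plates carrying two-fold dilution series of the test drug alone or in combination, following the Japan Chemotherapeutic Society agar dilution standard.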

S. marcescens X 100 = assay type: cell-based, Serratia marcescens
Method in brief: as §1

E. cloacae GN7471 = assay type: cell-based, Enterobacter cloacae; conditions: Enterobacter cloacae
Method in brief: as §1

C. freundii GN346 = assay type: cell-based, Citrobacter freundii; conditions: Citrobacter freundii
Method in brief: as §1

## C[C@H]1C=C(c2csc(SC3=C(C(=O)O)N4C(=O)[C@H]([C@@H](C)O)[C@H]4[C@H]3C)n2)CN1 [SM, (4R,5S,6S)-6-[(1R)-1-Hydroxyethyl]-4-methyl-3-({4-[(5S)-5-methyl-2,5-dihydro-1H-pyrrol-3-yl]-1,3-thiazol-2-yl}sulfanyl)-7-oxo-1-azabicyclo[3.2.0]hept-2-ene-2-carboxylic acid]
S. marcescens GN6473; GN6473, Concomitant (IPM:SM = 1:1), read-out: MIC
  MIC: 0.25 µg/mL
S. marcescens GN6473; GN6473, Concomitant (MEPM:SM = 1:1), read-out: MIC
  MIC: 0.031 µg/mL
S. marcescens GN6473; GN6473, Concomitant (MEPM:SM = 1:2), read-out: MIC
  MIC: 0.063 µg/mL
S. marcescens GN6473; GN6473, Concomitant (MEPM:SM = 1:4), read-out: MIC
  MIC: 0.125 µg/mL
S. marcescens GN6473; GN6473, Concomitant (PAPM:SM = 1:1), S. marcescens GN6473, read-out: MIC concomitant
  MIC: 0.25 µg/mL
S. marcescens GN6473; GN6473, Concomitant (PIPC:SM = 1:1), S. marcescens GN6473, read-out: MIC concomitant
  MIC: 4 µg/mL
S. marcescens GN6473; GN6473, Concomitant drug (MEPM:SM = 2:1), read-out: MIC
  MIC: 0.016 µg/mL
S. marcescens GN6473; GN6473, alone, read-out: MIC
  MIC: 4 µg/mL
S. marcescens GN6473; GN6473, drug alone, S. marcescens GN6473, read-out: MIC alone
  MIC: 4 µg/mL
S. marcescens X 100; Serratia marcescens, X100, Concomitant (AZT:SM = 1:1), S. marcescens X 100, read-out: MIC concomitant
  MIC: 0.031 µg/mL
S. marcescens X 100; Serratia marcescens, X100, Concomitant (BIPM:SM = 1:1), S. marcescens X 100, read-out: MIC concomitant
  MIC: 0.063 µg/mL
S. marcescens X 100; Serratia marcescens, X100, Concomitant (CAZ:SM = 1:1), S. marcescens X 100, read-out: MIC concomitant
  MIC: 0.125 µg/mL
S. marcescens X 100; Serratia marcescens, X100, Concomitant (CPFX:SM = 1:1), S. marcescens X 100, read-out: MIC concomitant
  MIC: 0.063 µg/mL
S. marcescens X 100; Serratia marcescens, X100, Concomitant (DRPM:SM = 1:1), S. marcescens X 100, read-out: MIC concomitant
  MIC: 0.031 µg/mL
S. marcescens X 100; Serratia marcescens, X100, Concomitant (IPM:SM = 1:1), read-out: MIC
  MIC: 0.125 µg/mL
S. marcescens X 100; Serratia marcescens, X100, Concomitant (MEPM:SM = 1:1), read-out: MIC
  MIC: ≤ 0.016 µg/mL
S. marcescens X 100; Serratia marcescens, X100, Concomitant (MEPM:SM = 1:2), read-out: MIC
  MIC: ≤ 0.031 µg/mL
S. marcescens X 100; Serratia marcescens, X100, Concomitant (MEPM:SM = 1:4), read-out: MIC
  MIC: ≤ 0.063 µg/mL
S. marcescens X 100; Serratia marcescens, X100, Concomitant (PAPM:SM = 1:1), S. marcescens X 100, read-out: MIC concomitant
  MIC: 0.125 µg/mL
S. marcescens X 100; Serratia marcescens, X100, Concomitant (PIPC:SM = 1:1), S. marcescens X 100, read-out: MIC concomitant
  MIC: 0.25 µg/mL
S. marcescens X 100; Serratia marcescens, X100, Concomitant drug (MEPM:SM = 2:1), read-out: MIC
  MIC: 0.016 µg/mL
S. marcescens X 100; Serratia marcescens, X100, alone, read-out: MIC
  MIC: 0.5 µg/mL
S. marcescens X 100; Serratia marcescens, X100, drug alone, S. marcescens X 100, read-out: MIC alone
  MIC: 1 µg/mL
S. marcescens X 100; alone
  MIC: 1 µg/mL
E. cloacae GN7471; GN7471, Concomitant (AZT:SM = 1:1), E. cloacae GN7471, read-out: MIC concomitant
  MIC: 4 µg/mL
E. cloacae GN7471; GN7471, Concomitant (BIPM:SM = 1:1), E. cloacae GN7471, read-out: MIC concomitant
  MIC: 0.063 µg/mL
E. cloacae GN7471; GN7471, Concomitant (CAZ:SM = 1:1), E. cloacae GN7471, read-out: MIC concomitant
  MIC: 8 µg/mL
E. cloacae GN7471; GN7471, Concomitant (CPFX:SM = 1:1), E. cloacae GN7471, read-out: MIC concomitant
  MIC: 0.016 µg/mL
E. cloacae GN7471; GN7471, Concomitant (DRPM:SM = 1:1), E. cloacae GN7471, read-out: MIC concomitant
  MIC: 0.031 µg/mL
E. cloacae GN7471; GN7471, Concomitant (IPM:SM = 1:1), read-out: MIC
  MIC: 0.125 µg/mL
E. cloacae GN7471; GN7471, Concomitant (MEPM:SM = 1:1), read-out: MIC
  MIC: 0.031 µg/mL
E. cloacae GN7471; GN7471, Concomitant (MEPM:SM = 1:2), read-out: MIC
  MIC: 0.063 µg/mL
E. cloacae GN7471; GN7471, Concomitant (MEPM:SM = 1:4), read-out: MIC
  MIC: 0.125 µg/mL
E. cloacae GN7471; GN7471, Concomitant (PAPM:SM = 1:1), E. cloacae GN7471, read-out: MIC concomitant
  MIC: 0.125 µg/mL
E. cloacae GN7471; GN7471, Concomitant (PIPC:SM = 1:1), E. cloacae GN7471, read-out: MIC concomitant
  MIC: 8 µg/mL
E. cloacae GN7471; GN7471, Concomitant drug (MEPM:SM = 2:1), read-out: MIC
  MIC: 0.016 µg/mL
E. cloacae GN7471; GN7471, alone, read-out: MIC
  MIC: 8 µg/mL
E. cloacae GN7471; GN7471, drug alone, E. cloacae GN7471, read-out: MIC alone
  MIC: 8 µg/mL
C. freundii GN346; GN346, Concomitant (AZT:SM = 1:1), C. freundii GN346, read-out: MIC concomitant
  MIC: 8 µg/mL
C. freundii GN346; GN346, Concomitant (BIPM:SM = 1:1), C. freundii GN346, read-out: MIC concomitant
  MIC: 0.125 µg/mL
C. freundii GN346; GN346, Concomitant (CAZ:SM = 1:1), C. freundii GN346, read-out: MIC concomitant
  MIC: 8 µg/mL
C. freundii GN346; GN346, Concomitant (CPFX:SM = 1:1), C. freundii GN346, read-out: MIC concomitant
  MIC: 0.008 µg/mL
C. freundii GN346; GN346, Concomitant (DRPM:SM = 1:1), C. freundii GN346, read-out: MIC concomitant
  MIC: 0.063 µg/mL
C. freundii GN346; GN346, Concomitant (IPM:SM = 1:1), read-out: MIC
  MIC: 0.25 µg/mL
C. freundii GN346; GN346, Concomitant (MEPM:SM = 1:1), read-out: MIC
  MIC: 0.031 µg/mL
